In patent publication US20060252766A1, “Methods using a combination of 3-heteroaryl-2-indolinone and a cyclooxygenase-2 inhibitor for the treatment of neoplasia” (PFIZER INC, priority 2002, published 2006):
pIC50: −log10 of the molar value.

Columns and labels:
PDGFR [1] = assay: PDGF-induced BrdU incorporation assay in 3T3/EGFR cells; type: cell-based; settings: Mitogenesis in 3T3/EGFR cells, read-out: PDGFR PDGF Ligand IC50
PDGFR [2] = biological target: PDGFR (Homo sapiens, UniProt P09619); assay: PDGF-R ELISA
Chain of PDGFR (Homo sapiens, UniProt P09619) (P09619 33-1106): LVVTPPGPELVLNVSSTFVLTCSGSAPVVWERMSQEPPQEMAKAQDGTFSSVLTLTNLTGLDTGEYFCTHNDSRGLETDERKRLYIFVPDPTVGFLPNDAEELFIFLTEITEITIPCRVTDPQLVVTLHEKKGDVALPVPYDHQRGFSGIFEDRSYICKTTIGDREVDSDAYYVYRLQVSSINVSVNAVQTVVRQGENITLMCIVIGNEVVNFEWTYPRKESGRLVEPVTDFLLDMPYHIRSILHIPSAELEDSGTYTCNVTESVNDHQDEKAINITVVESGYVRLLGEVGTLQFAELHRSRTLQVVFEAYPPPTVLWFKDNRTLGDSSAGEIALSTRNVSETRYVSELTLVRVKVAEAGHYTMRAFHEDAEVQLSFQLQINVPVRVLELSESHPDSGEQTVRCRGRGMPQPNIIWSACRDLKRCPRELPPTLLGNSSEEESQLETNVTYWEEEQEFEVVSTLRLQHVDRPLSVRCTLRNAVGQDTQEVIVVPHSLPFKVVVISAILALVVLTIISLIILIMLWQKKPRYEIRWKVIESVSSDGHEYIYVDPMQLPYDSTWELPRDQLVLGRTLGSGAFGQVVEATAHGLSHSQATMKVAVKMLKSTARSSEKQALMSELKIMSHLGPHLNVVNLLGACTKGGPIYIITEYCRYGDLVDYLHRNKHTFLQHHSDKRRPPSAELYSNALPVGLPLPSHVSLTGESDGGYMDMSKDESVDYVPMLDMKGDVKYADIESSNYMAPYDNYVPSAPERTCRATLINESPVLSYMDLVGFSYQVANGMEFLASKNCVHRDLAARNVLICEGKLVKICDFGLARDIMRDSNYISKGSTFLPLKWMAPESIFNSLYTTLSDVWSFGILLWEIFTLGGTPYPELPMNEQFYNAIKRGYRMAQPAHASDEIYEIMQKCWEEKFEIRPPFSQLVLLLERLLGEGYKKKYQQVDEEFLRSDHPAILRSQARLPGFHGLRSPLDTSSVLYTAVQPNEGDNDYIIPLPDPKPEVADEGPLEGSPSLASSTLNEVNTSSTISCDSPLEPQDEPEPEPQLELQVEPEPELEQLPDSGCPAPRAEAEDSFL

FGFR = FGFR (Mus musculus, UniProt P16092); assay: FGF ligand BrdU incorporation in 3T3/EGFR cells; type: cell-based; settings: Mitogenesis in 3T3/EGFR cells
Chain of FGFR (P16092 22-822, change not shown): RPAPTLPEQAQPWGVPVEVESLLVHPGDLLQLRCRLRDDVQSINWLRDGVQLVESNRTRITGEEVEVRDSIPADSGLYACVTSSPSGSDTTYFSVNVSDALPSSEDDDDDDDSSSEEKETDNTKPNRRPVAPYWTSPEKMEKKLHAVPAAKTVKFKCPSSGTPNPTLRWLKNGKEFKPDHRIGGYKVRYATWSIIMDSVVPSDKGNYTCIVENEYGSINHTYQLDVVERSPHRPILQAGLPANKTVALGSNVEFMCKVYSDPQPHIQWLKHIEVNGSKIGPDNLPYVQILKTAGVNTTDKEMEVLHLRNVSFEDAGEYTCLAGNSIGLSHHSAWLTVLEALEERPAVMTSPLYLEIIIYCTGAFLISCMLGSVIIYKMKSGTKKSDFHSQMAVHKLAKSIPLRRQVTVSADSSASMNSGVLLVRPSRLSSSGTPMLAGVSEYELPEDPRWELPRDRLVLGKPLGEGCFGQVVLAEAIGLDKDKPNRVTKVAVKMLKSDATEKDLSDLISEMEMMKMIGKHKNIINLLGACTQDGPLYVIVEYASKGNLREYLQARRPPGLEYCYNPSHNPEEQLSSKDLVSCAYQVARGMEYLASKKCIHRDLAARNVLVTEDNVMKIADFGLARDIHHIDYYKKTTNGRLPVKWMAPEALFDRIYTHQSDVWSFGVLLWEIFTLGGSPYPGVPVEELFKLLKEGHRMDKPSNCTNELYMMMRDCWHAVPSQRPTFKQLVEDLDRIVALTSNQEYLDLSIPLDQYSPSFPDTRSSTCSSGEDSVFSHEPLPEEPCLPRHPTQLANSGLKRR

HUV-EC-C cells (VEGF) = assay: HUV-EC-C assay, [3H] thymidine incorporation, VEGF; type: cell-based, human; settings: Mitogenesis in endothelial cells
HUV-EC-C cells (a-FGF) = assay: HUV-EC-C assay, [3H] thymidine incorporation, a-FGF; type: cell-based, human; settings: Mitogenesis in endothelial cells
Method: The following protocol may also be used to measure the composition's activity: • Day 0 • 1. […] After cells have detached from the flask, add an equal volume of assay medium and transfer to a 50 ml sterile centrifuge tube (Fisher Scientific; catalogue no. 05-539-6). • 2. Wash the cells with about 35 ml assay medium in the 50 ml sterile centrifuge tube by adding the assay medium, centrifuge for 10 minutes at approximately 200×g, aspirate the supernatant, and resuspend with 35 ml D-PBS. Repeat the wash two more times with D-PBS, resuspend the cells in about 1 ml assay medium/15 cm^2 of tissue culture flask. Assay medium consists of F12K medium (Gibco BRL; catalogue no. 21127-014)+0.5% heat-inactivated fetal bovine serum. Count the cells with a Coulter Counter.RTM.v Coulter Electronics, Inc.) and add assay medium to the cells to obtain a concentration of 0.8-1.0×10^5 cells/ml. • 3. Add cells to 96-well flat-bottom plates at 100 μl/well or 0.8-1.0×10^4 cells/well; incubate about 24 h at 37° C., 5% CO2. Day 1 • 1. Make up two-fold drug titrations in separate 96-well plates, generally 50 μM on down to 0 μM. Use the same assay medium as mentioned in day 0, step 2 above. Titrations are made by adding […] of drug at 200 μM (4× the final well concentration) to the top well of a particular plate column. Since the stock drug concentration is usually 20 mM in DMSO, the 200 μM drug concentration contains 2% DMSO. Therefore, diluent made up to 2% DMSO in assay medium (F12K+0.5% fetal bovine serum) is used as diluent for the drug titrations in order to dilute the drug but keep the DMSO concentration constant. Add this diluent to the remaining wells in the column at 60 μl/well. Take 60 μl from the 120 μl of 200 μM drug dilution in the top well of the column and mix with the 60 μl in the second well of the column. Take 60 μl from this well and mix with the 60 μl in the third well of the column, and so on until two-fold titrations are completed. When the next-to-the-last well is mixed, take 60 μl of the 120 μl in this well and discard it. Leave the last well with 60 μl of DMSO/media diluent as a non-drug-containing control. Make 9 columns of titrated drug, enough for triplicate wells each for 1) VEGF (obtained from Pepro Tech Inc., catalogue no. 100-200, 2) endothelial cell growth factor (ECGF) (also known as acidic fibroblast growth factor, or aFGF) (obtained from Boehringer Mannheim Biochemica, catalogue no. 1439 600), and assay media control. ECGF comes as a preparation with sodium heparin. • 2. Transfer 50 μl/well of the drug dilutions to the 96-well assay plates containing the 0.8-1.0×10^4 cells/100 μl/well of the HUV-EC-C cells from day 0 and […] incubate ~2 h at 37° C., 5% CO2. • 3. In triplicate, add 50 μl/well of 80 ng/ml VEGF, 20 ng/ml ECGF, or media control to each drug condition. As with the drugs, the growth factor concentrations are 4× the desired final concentration. Use the assay media from day 0 step 2 to make the concentrations of growth factors. Incubate approximately 24 hours at 37° C., 5% CO2. Each well will have 50 μl drug dilution, 50 μl growth factor or media, and 100 ul cells,=200 ul/well total. Thus the 4× concentrations of drugs and growth factors become 1× once everything has been added to the wells. Day 2 • 1. Add ^3H-thymidine (Amersham; catalogue no. TRK-686) at 1 μCi/well (10 μl/well of 100 μCi/ml solution made up in RPMI media+10% heat-inactivated fetal bovine serum) and incubate about 24 h at 37° C., 5% CO2. • Note: ^3H-thymidine is made up in RPMI media because all of the other applications for which we use the ^3H-thymidine involve experiments done in RPMI. The media difference at this step is probably not significant. RPMI was obtained from Gibco BRL, catalogue no. 11875-051. Day 3 • 1. Freeze plates overnight at −20° C. Day 4 • 1. […]

3T3/PDGFR+PDGF(T) cells = assay: 3T3/PDGF-βR/PDGF-BB(T) cell growth SRB assay; type: cell-based; settings: tumor-derived, SRB readout
Method: Cell Line and Growth Medium:
• 3T3/PDGF-βR/PDGF-BB(T) (NIH 3T3 clone 7 cells expressing PDGFβ-receptor and PDGF-BB, from tumors resected from athymic mice) 2% calf serum/DMEM+2 mM glutamine Protocol: Day 0: Cell Plating: • This part of assay is carried out in a laminar flow hood. • 1. Trypsinize cells as usual. Transfer 200 μl of cell suspension to 10 ml of isotone. Count cells on the Coulter Counter. • 2. Dilute cells in growth medium to 60,000 cells/ml. Transfer 100 μl of cells to each well in a 96-well flat bottom plate to give 6000 cells/well. • 3. Allow half of plate (4 rows) for each compound and quadruplicate wells for each compound concentration, a set of 4 wells for medium control and 4 wells for DMSO control. • 4. Gently shake plates to allow for uniform attachment of the cells to the plate. • 5. Incubate the plates at 37° C. in a 10% CO2 incubator. • Day 1: Addition of Compound: same as for Assay 1. • Day 5: Development of Assay: same as for Assay 1.
3T3/E/H+TGF-α(T): NIH 3T3 cells expressing EGFR/HER2 chimera and TGF-α, tumor-derived 3T3/EGFR+TGF-α(T): NIH 3T3 cells expressing EGFR and TGF-α, tumor-derived 3T3/PDGFR+PDGF(T): NIH 3T3 cells expressing PDGF-βR and PDGF-ββ, tumor-derived SMC: human smooth muscle cells from Clonetics

FLK-1 receptor = biological target: T1, FLK-1 receptor (Mus musculus, UniProt P35918); assay: FLK-1 ELISA in FLK-1/NIH3T3 cells; type: cell-based
T1 construct: expressed in transfected cells; host or cells: NIH3T3 C7#3 cells
T1 sequence (P35918 20-1345): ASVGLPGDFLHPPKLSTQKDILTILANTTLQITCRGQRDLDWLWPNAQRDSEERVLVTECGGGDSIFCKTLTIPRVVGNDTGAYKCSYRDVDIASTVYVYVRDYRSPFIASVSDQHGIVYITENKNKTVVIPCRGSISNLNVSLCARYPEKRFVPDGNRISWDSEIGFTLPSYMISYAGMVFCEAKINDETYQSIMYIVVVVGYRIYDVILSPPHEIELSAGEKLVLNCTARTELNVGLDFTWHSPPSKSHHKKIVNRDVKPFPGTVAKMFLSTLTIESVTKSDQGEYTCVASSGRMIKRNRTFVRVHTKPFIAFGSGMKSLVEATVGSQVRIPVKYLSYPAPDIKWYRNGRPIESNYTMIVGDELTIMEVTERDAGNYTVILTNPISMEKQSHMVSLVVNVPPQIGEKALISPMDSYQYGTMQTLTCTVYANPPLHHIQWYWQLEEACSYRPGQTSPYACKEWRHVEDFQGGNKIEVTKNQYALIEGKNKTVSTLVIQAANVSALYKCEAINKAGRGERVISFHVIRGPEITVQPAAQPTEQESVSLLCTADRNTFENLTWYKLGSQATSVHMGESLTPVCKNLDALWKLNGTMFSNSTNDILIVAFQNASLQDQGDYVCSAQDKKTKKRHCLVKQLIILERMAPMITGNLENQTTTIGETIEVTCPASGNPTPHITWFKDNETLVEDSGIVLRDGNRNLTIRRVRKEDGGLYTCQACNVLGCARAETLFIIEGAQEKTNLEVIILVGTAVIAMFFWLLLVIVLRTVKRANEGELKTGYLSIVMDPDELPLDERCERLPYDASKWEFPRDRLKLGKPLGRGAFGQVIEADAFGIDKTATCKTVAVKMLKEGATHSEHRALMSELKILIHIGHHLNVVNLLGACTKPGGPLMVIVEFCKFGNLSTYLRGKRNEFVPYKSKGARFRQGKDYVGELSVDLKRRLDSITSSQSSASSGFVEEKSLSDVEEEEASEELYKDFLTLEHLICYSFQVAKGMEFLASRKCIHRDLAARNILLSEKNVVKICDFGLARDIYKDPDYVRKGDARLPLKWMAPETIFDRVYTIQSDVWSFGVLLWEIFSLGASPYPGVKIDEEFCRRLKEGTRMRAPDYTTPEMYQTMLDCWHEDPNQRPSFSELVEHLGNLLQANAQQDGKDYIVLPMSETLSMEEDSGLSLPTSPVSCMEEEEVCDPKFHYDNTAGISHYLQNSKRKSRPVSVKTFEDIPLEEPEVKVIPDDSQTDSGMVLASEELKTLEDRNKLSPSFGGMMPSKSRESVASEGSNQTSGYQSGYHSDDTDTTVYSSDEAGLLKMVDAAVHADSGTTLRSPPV

3T3/E/H+TGF-a(T) cells = assay: 3T3/E/H+TGF-a(T) cell growth SRB assay; type: cell-based; settings: SRB readout

| pIC50 (HUV-EC-C cells (VEGF)) | Compound | pIC50 (PDGFR [1]) | pIC50 (PDGFR [2]) | pIC50 (FGFR) | also measured |
| --- | --- | --- | --- | --- | --- |
|  | Cc1cnc(C=C2C(=O)Nc3ccccc32)[nH]1 [SU5468, 3-[(5-Methylimidazol-2-yl)methylene]-2-indolinone] | 5.10 | 4.25 |  |  |
|  | O=C1Nc2ccccc2C1=Cc1ccc(N2CCOCC2)cc1 [SU4981, 3-[4-(Morpholin-4-yl)benzylidenyl]-2-indolinone] | 5.52 | 4.48 | 5.00 |  |
|  | CCc1c(C=C2C(=O)Nc3ccccc32)[nH]c(C)c1C [SU5453, 3-[(4,5-Dimethyl-3-ethylpyrrol-2-yl)methylene]-2-indolinone] |  | 4.18 |  |  |
|  | Cc1cc[nH]c1C=C1C(=O)Nc2ccccc21 [SU5404, 3-[(3-Methylpyrrol-2-yl)methylene]-2-indolinone] | 5.52 | 4.77 | 4.60 |  |
|  | COC(=O)CCc1c(C)c[nH]c1C=C1C(=O)Nc2ccccc21 [SU5407, 3-{[4-(2-methoxycarbonylethyl)-3-methylpyrrol-5-yl]methylene}-2-indolinone] |  | 4.27 |  |  |
| 5.60 | O=C1Nc2ccccc2C1=Cc1ccc(O)cc1Cl [SU4932, 3-(2-chloro-4-hydroxybenzylidenyl)-2-indolinone] |  |  |  | pIC50 (HUV-EC-C cells (a-FGF)): 4.34 |
| 5.10 | CN1C(=O)C(=Cc2ccc(Br)cc2)c2ccccc21 [SU4956, 3-(4-Bromobenzylidenyl)-1-methyl-2-indolinone] |  |  |  | pIC50 (HUV-EC-C cells (a-FGF)): 4.89 |
| 4.34 | CN1C(=O)C(=Cc2ccc(N3CCOCC3)cc2)c2ccccc21 [SU4982, 1-Methyl-3-[4-(morpholin-4-yl)benzylidenyl]-2-indolinone] |  |  |  | pIC50 (HUV-EC-C cells (a-FGF)): 4.56 |
|  | O=CN1CCN(c2ccc(C=C3C(=O)Nc4ccccc43)cc2)CC1 [SU4984, 3-[4-(4-Formylpiperazin-1-yl)benzylidenyl]-2-indolinone] |  | 5.24 |  | pIC50 (3T3/PDGFR+PDGF(T) cells): 4.65 |
| 5.18 | COc1ccc(OC)c(C=C2C(=O)Nc3ccccc32)c1 [SU4793, 3-(2,5-Dimethoxybenzylidenyl)-2-indolinone] |  |  |  | pIC50 (HUV-EC-C cells (a-FGF)): 5.47 |
|  | Cc1c(CCC(=O)O)c[nH]c1C=C1C(=O)Nc2ccccc21 [SU5402, 3-[(3-(2-carboxyethyl)-4-methylpyrrol-5-yl)methylene]-2-indolinone] | 4.30 |  | 4.40 |  |
| 4.70 | CC(=O)Nc1ccc(C=C2C(=O)Nc3ccccc32)cc1 [SU4799, 3-(4-acetamidobenzylidenyl)-2-indolinone] |  |  |  |  |
|  | Cc1cnc(C=C2C(=O)Nc3ccccc32)s1 [SU5469, 3-[(5-Methylthiazol-2-yl)methylene]-2-indolinone] | 5.40 |  | 4.82 |  |
|  | CN(C)c1ccc(C=C2C(=O)Nc3ccc(Cl)cc32)cc1 [SU4967, 5-Chloro-3-(4-dimethylaminobenzylidenyl)-2-indolinone] | 5.05 | 5.10 | 5.31 |  |
| 4.59 | CN(C)c1ccc(C=C2C(=O)N(C)c3ccccc32)cc1 [SU4952, 3-(4-Dimethylaminobenzylidenyl)-1-methyl-2-indolinone] |  |  |  | pIC50 (HUV-EC-C cells (a-FGF)): 4.71 |
|  | O=C1Nc2ccccc2C1=Cc1ccc(N2CCCC2)cc1 [SU5466, 3-[4-(Pyrrolidin-1-yl)benzylidenyl]-2-indolinone] | 4.74 | 4.07 | 4.82 |  |
|  | 3-[(2-Sulphonylfuran-5-yl)methylene]-2-indolinone sodium salt [SU5428] |  |  |  | pIC50 (FLK-1 receptor): 5.07 |
|  | O=C1Nc2ccccc2C1=Cc1c[nH]cn1 [SU5473, 3-[(Imidazol-4-yl)methylene]-2-indolinone] | 5.40 | 4.85 | 4.30 | pIC50 (HUV-EC-C cells (VEGF); Homo sapiens, HUVEC): 5.92; pIC50 (HUV-EC-C cells (a-FGF); Homo sapiens, HUVEC): 4.85 |
|  | CN(C)c1ccc(C=C2C(=O)Nc3ccccc32)cc1 [SU4312, 3-(4-Dimethylaminobenzylidenyl)-2-indolinone] |  |  |  | pIC50 (3T3/E/H+TGF-a(T) cells): 4.44 |
|  | O=C1Nc2ccccc2C1=Cc1c(Br)cnn1Cc1ccc(Cl)cc1 [SU5475, 3-[(4-Bromo-1-(4-chlorobenzyl)pyrazol-5-yl)methylene]-2-indolinone] | 5.19 |  | 5.05 |  |
| 5.32 | COc1cccc(C=C2C(=O)Nc3ccccc32)c1OC [SU4794, 3-(2,3-dimethoxybenzylidenyl)-2-indolinone] |  |  |  | pIC50 (HUV-EC-C cells (a-FGF)): 4.45 |
